Test results taken from US12410147B2, “Surfactants” (Imperial College Innovations Limited, priority 2020, dated 2025).

Columns and labels:
[1] = Solubility study in water (ISO standard 6839); format: physicochemical; settings: for solubility in water (concentration solubilized): room temperature
Protocol: 10 ml of solution was poured into a 20 ml vial and allowed to cool until precipitation was observed. Other 10 ml of solution was poured into a 20 ml vial and kept at a higher temperature. The precipitated sample was slowly heated and the clear sample was slowly cooled. The temperature at which an appearance change occurred was considered the temperature of solubility at a specific surfactant concentration.

[2] = Resistance to hard water (ISO standard 1063); format: physicochemical; settings: for appearance of the solutions in hard water stability tests (in words): all calcium concentrations; for Mean Stability: class from total score according to Table 3; for Total Score: sum of 15 appearance scores, CaCl2 6, 9 and 12 m equivalent Ca/L, five aliquots of 50 mg/ml mother solution
Protocol: These measurements were made according the standard protocol reported in ISO standard 1063. Calcium chloride was used as cation source at concentrations of 6, 9 and 12 m equivalent Ca/L (3.0, 4.5, 6.0 mM). A mother solution of surfactant with 50 mg/ml concentration was prepared in water at 20° C. In a 50 ml falcon-tube, a defined aliquot of mother solution was transferred and diluted up to 50 ml with the calcium solution. Five different aliquots of surfactant mother solution were tested: 5.0, 2.5, 1.2, 0.6 and 0.3 ml. In every test, the appearance of the sample was inspected and assigned a score according to Table 2. The scores of the 15 tests for each surfactant were summed and the final result was expressed as mean stability according to Table 3.
• Opalescent is a solution not clear but which objects can be seen. Cloudy is a solution not clear which objects cannot be seen through.

[3] = Critical micelle concentration, air-water-surfactant system, pendant drop method; format: physicochemical; settings: 25° C., deionised water
Protocol: Concentrations that were evaluated for each surfactant varied depending on the solubility of the surfactant and the surface tension reduction observed during the analysis. The experiment was performed at 25° C. Deionised water (prepared using a Milli-Q system (Merck)) was used for each experiment. The pendant drop method was used to calculate the surface tension by using a Krüss DSA25. A drop of the solution was produced in the tip of a blunt metal needle (1.25 mm) until the drop reached its maximum size. After 10-15 seconds of equilibration, an image of the drop was captured using a digital camera. The drop was analyzed using the software Krüss EasyDrop Standard-Drop Shape Analysis (DSA1) v 1.92. The software uses the Young-Laplace equation to calculate the surface tension according to the drop deformation considering the effect of gravity and hydrostatic pressure. Critical micellar concentration (CMC) was obtained after plotting surface tension vs surfactant concentration. The CMC is calculated as the surfactant concentration where the initial straight line intersects the plateau in the graph.

[4] = Surface tension in octanol-water-surfactant system, drop volume method (ISO 9101 modified); format: physicochemical
From the text: The drop volume method was used to calculate the surface tension in the system following the ISO standard 9101 with some modifications. In each experiment a drop of aqueous solution of surfactant was slowly formed in the tip of a needle (d=1.82 mm) submerged in octanol using a syringe connected at a Krüss DSA25 drop shape analyser instrument. The drop formation was allowed to grow as close as possible the maximum volume at which it would detach from the needle. At this point, the drop was left to stabilize for 2 minutes and then was detached from the needle by providing a small amount of additional solution. A photo of the drop leaving the needle was captured using the camera connected to the Krüss DSA25. The diameter of the drop was measured, and the surface tension was calculated using the following equation: […]
Where γ is the surface tension (mN/m), V is the drop volume (cm^3), Δρ is the difference of density between water and octanol (g/cm^3), g is the acceleration due to gravity (cm/s^2), d is the outer diameter of the needle (cm), and f is a correction factor calculated using the following equation: […]
Surface tension at concentration 2 times the CMC in deionised water (prepared using a Milli-Q system (Merck)) are summarized in Table 6. […] In FIG. 2 the drops formation of a water/surfactant solution in octanol have been reported for the SAF-8, SAF-12 and SDBS at a concentration of surfactant double of the CMC. The SAF-8 show the lower surface tension due mostly to the high concentration of surfactant used ([…]).
SAF-8 was evaluated using a concentration 2 times the CMC, while SAF-12 was evaluated at 2, 4 and 8 times the CMC.

[5] = Foaming capacity (ISO 6964 with modifications); format: physicochemical; settings: 0.2% surfactant, 50° C., after 5 minutes; for Foam height, hard water: 200 ppm CaCl2
Protocol: Foaming capacity was evaluated following the protocol set out in ISO 6964, with some modifications. In each test, 700 mL of surfactant solution containing 0.2% surfactant was prepared using deionized water or a hard water solution of distilled water with 200 ppm of CaCl2. The solutions were prepared by agitating the components for 60 minutes at 50° C. After 60 minutes, 50 mL of solution was poured in a 1000 mL glass measuring cylinder, which was then placed in a water bath that was heated to 50° C. 600 mL of the surfactant solution was poured into a chromatography column fitted with a stainless-steel needle at the egress. The column was placed over the measuring cylinder so that the tip of the needle was […] from the surfactant solution in the measuring cylinder. 450 mL of surfactant solution were poured from the column into the measuring cylinder. After pouring the solution, foam height was measured at 30 sec, 3 min, 5 min and 15 min.

[6] = test system: E. coli in expressing the b-galactosidase; format: cell-based; settings: 37° C., 30 min, OD 600 nm
Protocol: The toxicity of different surfactants was analysed using a Toxi-Chromo test kit supplied by EBPI to quantify the inhibition of E. coli in expressing the b-galactosidase in the presence of the surfactants. Using the standard protocol, a mother solution containing 1000 ppm of a surfactant was prepared. The bacteria inoculum was mixed with a reaction mixture, nutrients supplied with the kit and the toxicant. A further 15 samples at containing different amounts of the surfactant were prepared in the well plate through subsequent dilutions. The chromogen supplied with the kit was added in each well and the well plate was then incubated at 37° C. for 30 min. The optical density (OD) was read at 600 nm using a plate reader. The % inhibition was measured by the OD variation (which is associated a blue colour development). EC50 was measured by plotting and fitting the % inhibition and surfactant concentration.

[7] = test system: protozoa microorganisms; format: cell-based; settings: 30° C., 24 h, OD 440 nm
Protocol: The toxicity of different surfactants was analysed using a Protoxkit supplied by microbiotests quantify the inhibition of growth of protozoa microorganisms in the presence of the surfactants. Using the standard protocol, a dilution series of toxicant was prepared by serial 1:1 dilution with distilled water. 2 mL of each solution is placed in a UV cuvette. An inoculum of Protozoa was diluted to reach an OD of 0.04 at 440 nm then 40 μL of inoculum was added along a solution of 40 μL of nutrients in each dilution vials. The initial OD was measured for each vial and the vial was then incubated at 30° C. for 24 h. Inhibition was measured by the comparing the variation of initial and final OD.

[8] = test system: zein protein; test: Zein solubilisation study; settings: 2 g zein, 40 ml of 0.5 wt % surfactant solution, 40° C., 12 h
Protocol: The applicability of surfactants in personal care products was studied by analysing their capacity to solubilise zein protein. In each test 2 g of zein protein was mixed with 40 ml of 0.5 wt % surfactant solution and the mixture was incubated at 40° C. for 12 h. The mixture was then centrifuged and the remaining solid zein was washed with 50 mL of water 5 times. The solid zein was dried for in an oven at 70° C. for 5 days and weighted. The zein solubilisation was evaluated as percentage of zein that was dissolved into the surfactant solution.

[9] = surfactant concentration 12.5 % weight in water
[10] = surfactant concentration 15 % weight in water
[11] = surfactant concentration 17.5 % weight in water
[12] = surfactant concentration 20 % weight in water
[13] = surfactant concentration 22.5 % weight in water
[14] = deionised water in octanol, concentration 2 times the CMC
[15] = hard water (500 ppm CaCl2) in octanol, 2 times the CMC

| SMILES | temperature at which dissolution was observed [1, 9] | temperature at which dissolution was observed [1, 10] | temperature at which dissolution was observed [1, 11] | temperature at which dissolution was observed [1, 12] | temperature at which dissolution was observed [1, 13] [°C] | appearance of the solutions in hard water stability tests (in words) [2] | Mean Stability [2] | Total Score [2] | CMC [3] [ppm] | Surface tension [4, 14] [mN/m] | Surface tension [4, 15] [mN/m] | Foam height, hard water [5] [mm] | Foam height, distilled water [5] [mm] | EC50, inhibition of E. coli in expressing the b-galactosidase [6] [ppm] | EC50, inhibition of growth of protozoa microorganisms [7] [ppm] | % of zein dissolved [8] [%] | solubility in water (concentration solubilized) [1] | further results |
| --- | --- | --- | --- | --- | --- | --- | --- | --- | --- | --- | --- | --- | --- | --- | --- | --- | --- | --- |
| CCCCCCCCCCCCOC(=O)c1ccc(S(=O)(=O)O)o1 [SAF-12, Sulfonated Dodecyl Furoate] | 20-25 °C | 20-25 °C | 20-25 °C | 20-25 °C | <0 | remained clear | 5 (75) | 75 | 521 | 3.42 | 4.51 ± 0.5 | 10.35 ± 0.5 | 7.8 ± 0.4 | 63.5 ± 2.8 | 49.65 ± 5 | 15.3 ± 0.26 | – | temperature below which the surfactant would precipitate ([1]; 20% solution): below 20 °C; solubility in water (concentration soluble) ([1]; 24° C.): 20%; Surface tension ([4]; hard water (500 ppm CaCl2) in octanol, 4 times the CMC): 3.78 ± 0.45 mN/m; Surface tension ([4]; hard water (500 ppm CaCl2) in octanol, 8 times the CMC): 1.99 ± 0.27 mN/m |
| CCCCCCCCCCCCOS(=O)(=O)[O-].[Na+] [SDS, sodium dodecyl sulfate, reference compound] | – | – | – | – | – | extensive precipitation in many tests | 2 (19-37) | 21 | – | 1.34 ± 0.28 | – | 4.25 ± 0.4 | 7.25 ± 0.4 | 123.7 ± 5.2 | 85.71 ± 3.8 | – | – | behaviour in hard water (in words) ([4]; hard water (500 ppm CaCl2)): significant agglomeration |
| CCCCCCCCCCCCCCCCOC(=O)c1ccc(S(=O)(=O)O)o1 [SAF-16, Sulfonated Hexadecyl Furoate] | >50 °C | >50 °C | >50 °C | >50 °C | >50 | – | – | – | 60 | – | – | – | – | – | – | – | 0.05% | solubility in water (in words) ([1]; comparison of surfactants): very low solubility |
| CCCCCCCCOC(=O)c1ccc(S(=O)(=O)O)o1 [SAF-8, Sulfonated Octyl Furoate] | <0 °C | <0 °C | <0 °C | <0 °C | <0 | remained clear | 5 (75) | 75 | 1330 | 2.65 | 1.91 ± 0.25 | 5 ± 0.5 | 2.5 ± 0.7 | 292 ± 13 | 673 ± 10 | 10.4 ± 0.98 | up to 140% | – |
